Test system: MEF cells
Test: MEF cell viability, MTT Cell Proliferation Assay
Format: cell-based, mouse
Settings: MEF cells treated with s^4U (0-1 mM) for 1 hour; MTT assay in triplicate
Experimental: FIG. 9A depicts exemplary MEF cell viability assays with increasing concentrations of s^4U (0, 50, 100, 500 and 1000 μM). FIG. 9B depicts exemplary MEF cell viability assays with increasing concentrations of Triton-X-100 (0, 0.5, 1, and 2%). MEF cells were plated at 10^6 cells/ml and allowed to rest overnight. An MTT assay (ATTC MTT Cell Proliferation Assay kit) was performed in triplicate after indicated treatment for 1 h. After treatment and lysis, absorbance at 570 nm was measured. FIG. 9C depicts an exemplary MA-plot of expression levels in RNA-seq in MEF cells treated with 1 mM s^4U for 1 hour, compared to cells without s^4U treatment. […] Each condition was tested with two replicates. Conditions are: ++, with s^4U treatment and chemical treatment; +−, with s^4U treatment but no chemical treatment; −+, no s^4U treatment but with chemical treatment; −−, neither s^4U treatment nor chemical treatment.
MEF cells were grown at 37° C. in DMEM containing 10% FBS and 1% P/S. Cells were plated at 10^6 cells/mL in a 96-well microtiter plate and allowed to recover overnight. Cells were then treated in triplicate with increasing concentrations of s^4U (0-1 mM) for 1 hour, and the ATCC MTT Cell Proliferation Assay kit was used according to manufacturer's instructions to assess cell viability.

## O=c1[nH]c(=S)ccn1[C@@H]1O[C@H](CO)[C@@H](O)[C@H]1O [s^4U, 4-thiouridine]
  s^4U toxicity (cell viability, absorbance at 570 nm): no s^4U toxicity was observed
